From ChEMBL document CHEMBL1122521, “Nucleic acid related compounds. 47. Synthesis and biological activities of pyrimidine and purine "acyclic" nucleoside analogues” (J Med Chem, 1984)
Values after ≈ are worked out from the molar mass of the structure shown.

The compounds below were run on Vaccinia virus (assay: Concentration required to reduce cytopathogenicity of vaccinia virus by 50% in primary rabbit kidney (PRK) cells).
Assay type: functional, Orthopoxvirus vaccinia

Question: For `Nc1nc2c(nc(I)n2COCCO)c(=O)[nH]1`, which ID50 is on record?
Answer: The ID50 was >400 µg/mL.

Question: For `CNc1nc2c(=O)[nH]c(N)nc2n1COCCO`, which ID50 is on record?
Answer: Its ID50 is >400 µg/mL.

Question: `CN(C)c1nc2c(=O)[nH]c(N)nc2n1COCCO` was tested. Which ID50 did it give?
Answer: Its ID50 is “>=300 ug ml-1”.

Question: `Nc1nc2c(nc(O)n2COCCO)c(=O)[nH]1` was tested. Which ID50 did it give?
Answer: Its ID50 is >400 µg/mL.

Question: With `Nc1nc2c(nc(Br)n2COCCO)c(=O)[nH]1` as the compound, how does the ID50 read?
Answer: Its ID50 is >400 µg/mL.

Question: How did the ID50 turn out when `Nc1nc(Cl)c2ncn(COCCO)c2n1` was run?
Answer: The ID50 was 70 µg/mL (≈ 287 µM).

Question: Which ID50 does the source give for `Nc1ccn(COCCO)c(=O)n1` here?
Answer: The ID50 was >400 µg/mL.

Question: How did the ID50 turn out when `CC(=O)OCCOCn1cnc2c(Cl)nc(N)nc21` was run?
Answer: The ID50 was 70 µg/mL (≈ 245 µM).

Question: For `Nc1nc(O)c2nc(N3CCCCC3)n(COCCO)c2n1`, which ID50 is on record?
Answer: The ID50 was >400 µg/mL.

Question: Which ID50 does the source give for `CC(=O)OCCOCn1cnc2c(Cl)ncnc21` here?
Answer: The ID50 was 20 µg/mL (≈ 73.9 µM).

Question: How did the ID50 turn out when `Nc1nc2c(nc(N)n2COCCO)c(=O)[nH]1` was run?
Answer: The ID50 was >100 µg/mL.

Question: Which ID50 does the source give for `Nc1ncnc2c1ncn2COCCO` here?
Answer: Its ID50 is 20 µg/mL (≈ 95.6 µM).

Question: Which ID50 does the source give for `Cc1nc2c(O)nc(N)nc2n1COCCO` here?
Answer: Its ID50 is >400 µg/mL.

Question: `Nc1nc2c(ncn2COCCO)c(=O)[nH]1` [ACYCLOVIR] was tested. Which ID50 did it give?
Answer: Its ID50 is 50 µg/mL (≈ 222 µM).

Question: For `O=c1[nH]c(=O)n([C@H]2C[C@H](O)[C@@H](CO)O2)cc1/C=C/Br` [BRIVUDINE], which ID50 is on record?
Answer: Its ID50 is 7 µg/mL (≈ 21 µM).

Question: For `O=c1[nH]c(=O)n([C@H]2C[C@H](O)[C@@H](CO)O2)cc1I` [IDOXURIDINE], which ID50 is on record?
Answer: The ID50 was 0.2 µg/mL (≈ 0.565 µM).
